{
  "source": "patent US20090005435A1",
  "about": "“Novel Compounds, Pharmaceutical Compositions Containing Same, and Methods of Use for Same” (priority 2004, published 2009)",
  "format_in_all_cases": "cell-based",
  "key": {"[1]": {"system": "Escherichia coli (ATCC #25922)", "test": "Broth microdilution MIC, E. coli", "experimental": "(§1) A broth microdilution assay is used to assess the antimicrobial activity of the compounds. Compounds are tested at twofold serial dilutions, and the concentration that inhibits visible growth (OD600 at 10% of control) is defined as the MIC. Microorganisms tested include Staphylococcus aureus (ATCC #29213), Enterococcus faecalis (ATCC #29212), Pseudomonas aeruginosa (ATCC #27853), and Escherichia coli (ATCC #25922). The assay is performed in two growth media, Mueller Hinton Broth and Trypticase Soy Broth.\n(§2) A blood (Tsoy/5% sheep blood) agar plate is inoculated from frozen stocks maintained in T soy broth containing 10% glycerol and incubated overnight at 37° C. Colonies are suspended in sterile broth so that the turbidity matches the turbidity of a 0.5 McFarland standard. The inoculum is diluted 1:10 in sterile broth (Mueller Hinton or Trypticase soy) and 195 ul is dispensed per well of a 96-well plate. […]\n(§3) After 24 hours of incubation at 37° C., plates are read at OD600 on a Molecular Devices SpectraMax Plus Spectrophotometer. Average OD600 values are computed using SOFTmax Pro Software (Molecular Devices) and MIC values are determined by linear regression analysis using Prism version 3.02 (Graph Pad Software, San Diego). […]"}, "CPT-1": {"biological_target": "T1, CPT-1 (Homo sapiens, UniProt P50416)", "T1 construct": "This assay uses permeabilized cells to measure the transfer of [methyl-^14C]L-carnitine; endogenous in cells; host or cells: MCF-7 cells, digitonin-permeabilized", "T1 sequence (P50416 1-773)": "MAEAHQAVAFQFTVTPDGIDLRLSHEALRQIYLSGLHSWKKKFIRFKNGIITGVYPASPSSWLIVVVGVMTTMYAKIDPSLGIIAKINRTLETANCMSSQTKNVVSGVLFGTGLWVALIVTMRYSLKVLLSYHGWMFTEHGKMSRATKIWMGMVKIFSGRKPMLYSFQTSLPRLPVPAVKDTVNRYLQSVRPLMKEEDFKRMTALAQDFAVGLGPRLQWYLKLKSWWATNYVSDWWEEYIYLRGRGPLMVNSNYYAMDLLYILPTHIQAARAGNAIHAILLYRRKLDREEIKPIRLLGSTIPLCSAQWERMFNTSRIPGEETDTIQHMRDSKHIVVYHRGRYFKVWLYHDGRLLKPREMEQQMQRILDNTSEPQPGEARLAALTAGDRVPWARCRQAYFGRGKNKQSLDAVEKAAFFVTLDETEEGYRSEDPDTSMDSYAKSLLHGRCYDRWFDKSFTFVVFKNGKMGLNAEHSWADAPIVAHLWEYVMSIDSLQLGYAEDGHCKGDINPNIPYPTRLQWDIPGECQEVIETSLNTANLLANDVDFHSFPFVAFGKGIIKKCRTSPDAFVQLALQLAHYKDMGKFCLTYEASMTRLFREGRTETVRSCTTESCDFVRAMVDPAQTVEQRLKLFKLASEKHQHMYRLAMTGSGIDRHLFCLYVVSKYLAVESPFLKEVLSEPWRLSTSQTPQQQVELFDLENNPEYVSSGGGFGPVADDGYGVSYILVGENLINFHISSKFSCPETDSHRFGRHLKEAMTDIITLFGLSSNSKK", "test": "Carnitine palmitoyltransferase-1 (CPT-1) assay in permeabilized MCF-7 cells", "details": "at 20 ug/ml", "experimental": "Carnitine Palmitoyltransferase-1 (CPT-1) Assay\nCPT-1 catalyzes the ATP dependent transfer of long-chain fatty acids from acyl-CoA to acyl-carnitine that is inhibited by malonyl-CoA. As CPT-1 requires the mitochondrial membrane for activity, enzyme activity is measured in permeabilized cells or mitochondria. This assay uses permeabilized cells to measure the transfer of [methyl-^14C]L-carnitine to the organically soluble acyl-carnitine deriviative.\nMCF-7 cells are plated in DMEM with 10% fetal bovine serum at 10^6 cells in 24-well plates in triplicate for controls, drugs, and malonyl-CoA. Two hours before commencing the assay, drugs are added at the indicated concentrations made from stock solutions at 10 mg/ml in DMSO, vehicle controls consist of DMSO without drug. Since malonyl-CoA cannot enter intact cells, it is only added in the assay buffer to cells that have not been preincubated with drugs. Following overnight incubation at 37° C., the medium is removed and replaced with 700 μl of assay buffer consisting of: 50 mM imidazole, 70 mM KCl, 80 mM sucrose, 1 mM EGTA, 2 mM MgCl2, 1 mM DTT, 1 mM KCN, 1 mM ATP, 0.1% fatty acid free bovine serum albumin, 70 μM palmitoyl-CoA, 0.25 μCi [methyl-^14C]L-carnitine, 40 μg digitonin with drug, DMSO vehicle control, or 20 μM malonyl-CoA. […] The butanol phase is counted by liquid scintillation and represents the acylcarnitine derivative."}, "[2]": {"system": "Staphylococcus aureus (ATCC #29213)", "test": "Broth microdilution MIC, S. aureus", "experimental": "as §1, §2, §3"}, "[3]": {"system": "Enterococcus faecalis (ATCC #29212)", "test": "Broth microdilution MIC, E. faecalis", "experimental": "as §1, §2, §3"}},
  "data": [
    {"compound": "C=CCC1(CC=C)C(=O)SC(C)(CCCCCCCC)C1=O", "note": "(racemic) [Compound 4, 3,3-Diallyl-5-methyl-5-octyl-thiophene-2,4-dione]", "values": [
      {"measurement": "Ecoli/MH (MIC)", "setting": "[1]; Mueller Hinton Broth", "result": "Neg"},
      {"measurement": "Ecoli/Tsoy", "setting": "[1]; Trypticase Soy Broth", "result": "Neg"},
      {"measurement": "CPT I Stim", "setting": "CPT-1", "result": "125% of control"},
      {"measurement": "SA/MH (MIC)", "setting": "[2]; Mueller Hinton Broth", "result": "Neg"},
      {"measurement": "MIC", "setting": "[2]; Staphylococcus aureus, ATCC29213, Trypticase Soy Broth, read-out: SA/Tsoy (MIC)", "result": 98, "unit": "µg/mL"},
      {"measurement": "MIC", "setting": "[3]; Enterococcus faecalis, ATCC29212, Trypticase Soy Broth, read-out: EF/Tsoy (MIC)", "result": 169, "unit": "µg/mL"},
      {"measurement": "EF/MH (MIC)", "setting": "[3]; Mueller Hinton Broth", "result": "Neg"}
    ]}
  ]
}
